Measurements: patent US20080175801A1, “Stable peroxide containing personal care compositions” (The Procter & Gamble Company, priority 2007, published 2008)
Where two headings read alike, the source gives them in different places.

Assay: Accelerated stability of flavor components in peroxide mouthrinse, measured by gas chromatography
Type: physicochemical
Conditions: for % Reduction at day 17, Formula IA / % Reduction at day 31, Formula IA: Formula IA with Glass H polyphosphate radical scavenger; for % Reduction at day 17, Formula IA / % Reduction at day 31, Formula IA / % Reduction at day 17, Formula IB / % Reduction at day 31, Formula IB / % Reduction at day 17, Treated / % Reduction at day 31, Treated / % Reduction at day 17, Untreated / % Reduction at day 31, Untreated: component at 0.005%; for % Reduction at day 17, Formula IB / % Reduction at day 31, Formula IB: no radical scavenger, not treated to remove metals; for % Reduction at day 17, Treated / % Reduction at day 31, Treated: formulation IB treated with polymer supported chelant; for % Reduction at day 17, Treated / % Reduction at day 31, Treated / % Reduction at day 17, Untreated / % Reduction at day 31, Untreated: vs day 0; for % Reduction at day 17, Untreated / % Reduction at day 31, Untreated: formulation IB untreated
Protocol: The stability of the present compositions was assessed by measuring any changes in levels of peroxide, active component (cetylpyridinium chloride) and flavor components under storage conditions at 40° C. and 75% Relative Humidity.
A flavor mix consisting of Ethylbutyrate, Limonene, Decanal, Methylsalicylate, Carvone and Anethole (each flavor component at 0.005%) was added to the compositions. The resulting mouthrinse formulations were packaged in 500 ml PET bottles and placed on accelerated stability test chamber at 40° C. and 75% Relative Humidity conditions. The amount of peroxide in the samples was measured using the method described above and no significant changes were detected. However, radical activity was greater in the untreated sample vs. the treated sample as evidenced in greater degradation of flavor components in the untreated sample. The amount of each flavor component at time 0, 17 and 31 days was evaluated by gas chromatography (GC). Results are summarized in Table 2 below showing % reduction of each component and total flavor at days 17 and 31 from day 0. […] The treatment also […].
Formulation IA with Glass H polyphosphate as radical scavenger was compared with a sample of formulation IB (no radical scavenger) that was not treated to remove metals. […] The resulting mouthrinse formulations were packaged in 500 ml PET bottles and placed on accelerated stability test chamber at 40° C. and 75% Relative Humidity. The amount of each flavor component at time 0, 17 and 31 days were measured by gas chromatography (GC).

| SMILES | Effect of polyphosphate radical scavenger on stability of flavor component | % Reduction at day 17, Formula IA (40° C., 75% RH) | % Reduction at day 31, Formula IA (40° C., 75% RH) | % Reduction at day 17, Formula IB (40° C., 75% RH) | % Reduction at day 31, Formula IB (40° C., 75% RH) | % Reduction at day 17, Treated (40° C., 75% RH) | % Reduction at day 31, Treated (40° C., 75% RH) | % Reduction at day 17, Untreated (40° C., 75% RH) | % Reduction at day 31, Untreated (40° C., 75% RH) | Stability of flavor component in the presence of peroxide | Effect of polyphosphate radical scavenger on stability of flavor component (in words, formulation IA vs untreated IB, 40° C., 75% RH) | Stability of flavor component in the presence of peroxide (in words, formulation IB, 40° C., 75% RH) |
| --- | --- | --- | --- | --- | --- | --- | --- | --- | --- | --- | --- | --- |
| CCCC(=O)OCC [Ethylbutyrate] | increased stability | 0% | 0% | 20% | 20% | 25% | 25% | 20% | 20% | – | – | – |
| CC=Cc1ccc(OC)cc1 [Anethole] | increased stability | 60% | 80% | 100% | 100% | 60% | 80% | 100% | 100% | significant decomposition | – | – |
| COC(=O)c1ccccc1O [Methylsalicylate] | – | – | – | – | – | – | – | – | – | relatively stable | – | – |
| CCCCCCCCCC=O [Decanal] | increased stability | 20% | 40% | 80% | 80% | 25% | 75% | 80% | 80% | significant decomposition | – | – |
| C=C(C)[C@H]1CC=C(C)CC1 [Limonene] | – | 25% | 25% | 100% | 100% | 75% | 75% | 100% | 100% | – | increased stability | significant decomposition |
| C=C(C)C1CC=C(C)C(=O)C1 (stereo not drawn) [Carvone] | – | 50% | 50% | 20% | 20% | 20% | 20% | 20% | 20% | – | – | – |
